# Data as given in patent publication US8394807B2, “Quinazoline inhibitors of BACE 1 and methods of using” (Purdue Research Foundation, priority 2008, dated 2013).
# Biological target: T1, memapsin 2 (Cricetulus griseus, UniProt G3IAK4)
# T1 construct: endogenous in cells; host or cells: Chinese hamster ovary cells over-expressing human APP695 (London and Swedish mutations)
# Assay: Cellular Aβ IC50 determination (Aβ40 sandwich ELISA)
# Format: cell-based
# Conditions: symbol in parentheses; Chinese hamster ovary cells over-expressing human APP695 (London and Swedish mutations), Aβ40, 24 h; read-out: Activity against memapsin 2: (IC50)
# Method: Cellular Aβ C50 Determinations. The potency of compounds against memapsin 2 catalytic activity is determined in a cellular assay of Aβ production. […] Chinese hamster ovary cells that over-express human APP695 with the London and Swedish mutations are seeded in multi-well plates at 10% confluency. Compounds are dissolved in DMSO to concentrations near 1 mM, and diluted into culture media to a final concentration near 4 μM (final 0.4% DMSO). Compounds are diluted serially and applied to cells in multi-well plates 48 h after seeding. Incubation is continued in 5% CO2 at 37 degrees C. for 24 h. Aliquots are removed and assayed for Aβ40 content using a sandwich ELISA (BioSource International). Amount of Aβ40 over the range of concentration of compounds, relative to control incubations, are fit to a 4-parameter IC50 model.
# T1 sequence (G3IAK4 22-501): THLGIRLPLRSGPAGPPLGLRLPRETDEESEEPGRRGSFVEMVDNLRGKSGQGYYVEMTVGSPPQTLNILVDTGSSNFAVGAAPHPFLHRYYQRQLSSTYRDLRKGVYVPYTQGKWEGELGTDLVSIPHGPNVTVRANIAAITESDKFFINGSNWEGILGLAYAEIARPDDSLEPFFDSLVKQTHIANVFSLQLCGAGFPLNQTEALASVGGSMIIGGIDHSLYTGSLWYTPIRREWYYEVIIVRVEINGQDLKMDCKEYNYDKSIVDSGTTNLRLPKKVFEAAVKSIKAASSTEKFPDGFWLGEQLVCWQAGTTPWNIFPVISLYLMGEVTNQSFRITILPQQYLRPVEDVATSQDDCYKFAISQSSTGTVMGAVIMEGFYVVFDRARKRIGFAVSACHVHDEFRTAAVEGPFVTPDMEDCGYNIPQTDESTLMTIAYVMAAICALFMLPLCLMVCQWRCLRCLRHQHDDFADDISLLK
row,IC50 [µM],Compound
1,< 0.05,CN(CCC[C@@H](C1CCCCC1)N1Cc2cc(Oc3ccccc3)ccc2N=C1N)C1CCCCC1 [Inhibitor 0188]
2,< 5,CN(C(=O)OC[C@@H](C1CCCOC1)N1Cc2cc(Oc3ccccc3)ccc2N=C1N)C1CCCCC1 (some centres unmarked) [Inhibitor 0318]
3,< 5,CN(C(=O)OC[C@@H](c1ccccc1)N1Cc2cc(Oc3ccccc3)ccc2N=C1N)C1CCCCC1 [Inhibitor 0328]
4,< 5,CN(CCC[C@@H](c1ccccc1)N1Cc2cc(Oc3ccccc3)ccc2N=C1N)C1CCCCC1 [Inhibitor 0418]
5,< 5,NC1=Nc2ccc(Oc3ccccc3)cc2CN1[C@@H](CCN(Cc1ccccc1)Cc1ccccc1)C1CCCCC1 [Inhibitor 0448]
6,> 5,CN(C(=O)OC[C@@H](C1CCCCC1)N1Cc2cc(Oc3ccccc3)ccc2N=C1N)C1CCCCC1 [Inhibitor 0458]
7,< 5,CN(C(=O)OCC(C1CCOC1)N1Cc2cc(Oc3ccccc3)ccc2N=C1N)C1CCCCC1 (centres unmarked) [Inhibitor 0548]

# Biological target: memapsin 2 (Homo sapiens, UniProt P56817)
# Sequence (P56817 46-501): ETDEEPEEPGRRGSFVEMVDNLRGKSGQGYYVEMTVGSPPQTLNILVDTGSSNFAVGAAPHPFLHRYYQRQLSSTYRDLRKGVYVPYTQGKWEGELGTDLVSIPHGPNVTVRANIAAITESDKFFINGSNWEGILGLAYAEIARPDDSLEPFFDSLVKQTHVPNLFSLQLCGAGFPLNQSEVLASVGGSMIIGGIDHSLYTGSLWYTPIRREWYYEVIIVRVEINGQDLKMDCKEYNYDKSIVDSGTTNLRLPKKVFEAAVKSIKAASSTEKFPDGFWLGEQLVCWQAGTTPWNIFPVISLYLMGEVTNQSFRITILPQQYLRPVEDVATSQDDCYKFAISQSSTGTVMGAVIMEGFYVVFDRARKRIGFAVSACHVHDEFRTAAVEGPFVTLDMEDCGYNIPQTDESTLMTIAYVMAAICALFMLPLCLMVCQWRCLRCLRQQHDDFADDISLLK
# Assay: Inhibition of memapsin 2 catalytic activity toward fluorogenic substrate FS-2
# Format: biochemical
# Conditions: pH 4, 37° C., 20 minutes pre-incubation, tight-binding model; symbol outside parentheses; read-out: Activity against memapsin 2: Ki
# Method: Inhibition Of Memapsin 2. […] Potency of compounds were determined by measurement of their inhibition of memapsin 2 catalytic activity toward a fluorescent substrate. […] Briefly, assays were performed at pH 4, 37° C., by pre-incubation of memapsin 2 enzyme with compound for 20 minutes. Activity measure was initiated by addition of a fluorogenic substrate FS-2 (Bachem Americas, Torrance, Calif.). Fluorescent signal increase over time was measured as a rate of hydrolysis of the peptide substrate. […]
row,Ki [nM],Compound
1,< 50,CN(CCC[C@@H](C1CCCCC1)N1Cc2cc(Oc3ccccc3)ccc2N=C1N)C1CCCCC1 [Inhibitor 0188]
2,< 500,Cc1csc(CN(CCC[C@@H](C2CCCCC2)N2Cc3cc(Oc4ccccc4)ccc3N=C2N)C2CCCCC2)n1 [Inhibitor 409]
3,< 500,Cc1nc(CN(CCC[C@@H](C2CCCCC2)N2Cc3cc(Oc4ccccc4)ccc3N=C2N)C2CCCCC2)c(C)o1 [Inhibitor 0509]
4,< 5000,Cc1nc(CN(C(=O)OC[C@@H](C2CCCCC2)N2Cc3cc(Oc4ccccc4)ccc3N=C2N)C2CCCCC2)cs1 [Inhibitor 0579]
5,< 500,Cc1nc(CN(CCC[C@@H](C2CCCCC2)N2Cc3cc(Oc4ccccc4)ccc3N=C2N)C2CCCCC2)cs1 [Inhibitor 0589]
6,< 500,CC(C)c1nc(CN(CCC[C@@H](C2CCCCC2)N2Cc3cc(Oc4ccccc4)ccc3N=C2N)C2CCCCC2)cs1 [Inhibitor 0659]
7,< 500,Cc1nc(C)c(CN(CCC[C@@H](C2CCCCC2)N2Cc3cc(Oc4ccccc4)ccc3N=C2N)C2CCCCC2)o1 [Inhibitor 0789]
8,< 500,Cc1nc(CCN(CCC[C@@H](C2CCCCC2)N2Cc3cc(Oc4ccccc4)ccc3N=C2N)C2CCCCC2)cs1 [Inhibitor 0809]
9,< 500,Cc1nc(CCN(CCC[C@@H](C2CCCCC2)N2Cc3cc(Oc4ccccc4)ccc3N=C2N)C2CCCCC2)co1 [Inhibitor 0909]
10,< 500,Cc1ncoc1CN(CCC[C@@H](C1CCCCC1)N1Cc2cc(Oc3ccccc3)ccc2N=C1N)C1CCCCC1 [Inhibitor 0929]
11,< 500,NC1=Nc2ccc(Oc3ccccc3)cc2CN1[C@@H](CCCN(Cc1cscn1)C1CCCCC1)C1CCCCC1 [Inhibitor 0979]
12,< 500,Cn1cc(CN(CCC[C@@H](C2CCCCC2)N2Cc3cc(Oc4ccccc4)ccc3N=C2N)C2CCCCC2)cn1 [Inhibitor 1049]
13,< 500,COCc1nc(CN(CCC[C@@H](C2CCCCC2)N2Cc3cc(Oc4ccccc4)ccc3N=C2N)C2CCCCC2)cs1 [Inhibitor 1099]
14,< 5000,Cc1nc(CN(CCC[C@@H](C2CCCCC2)N2Cc3cc(Oc4cccnc4)ccc3N=C2N)C2CCCCC2)cs1 [Inhibitor 1209]
15,< 5000,Cc1nc(CN(CCC[C@@H](C2CCCCC2)N2Cc3cc(Oc4ccccn4)ccc3N=C2N)C2CCCCC2)cs1 [Inhibitor 1219]
16,< 50,NC1=Nc2ccc(Oc3ccccc3)cc2CN1[C@@H](CCCN(Cc1cn[nH]c1)C1CCCCC1)C1CCCCC1 [Inhibitor 1509]
17,< 50,Cc1[nH]ncc1CN(CCC[C@@H](C1CCCCC1)N1Cc2cc(Oc3ccccc3)ccc2N=C1N)C1CCCCC1 [Inhibitor 1519]

# Further lines, the compound ahead of its results:
row,Compound,Ki [nM]
1,Cc1csc(CN(C(=O)OC[C@@H](C2CCCCC2)N2Cc3cc(Oc4ccccc4)ccc3N=C2N)C2CCCCC2)n1 [Inhibitor 119],< 500
2,CN(C(=O)OC[C@@H](C1CCCOC1)N1Cc2cc(Oc3ccccc3)ccc2N=C1N)C1CCCCC1 (some centres unmarked) [Inhibitor 0318],< 500
3,CN(C(=O)OC[C@@H](c1ccccc1)N1Cc2cc(Oc3ccccc3)ccc2N=C1N)C1CCCCC1 [Inhibitor 0328],< 5000
4,CN(CCC[C@@H](C1CCCOC1)N1Cc2cc(Oc3ccccc3)ccc2N=C1N)C1CCCCC1 (some centres unmarked) [Inhibitor 0408],< 500
5,CN(CCC[C@@H](c1ccccc1)N1Cc2cc(Oc3ccccc3)ccc2N=C1N)C1CCCCC1 [Inhibitor 0418],< 5000
6,NC1=Nc2ccc(Oc3ccccc3)cc2CN1[C@@H](CCNCC1CCCCC1)C1CCCCC1 [Inhibitor 0428],< 500
7,CC(NCC[C@@H](C1CCCCC1)N1Cc2cc(Oc3ccccc3)ccc2N=C1N)c1ccccc1 (some centres unmarked) [Inhibitor 0438],< 500
8,NC1=Nc2ccc(Oc3ccccc3)cc2CN1[C@@H](CCN(Cc1ccccc1)Cc1ccccc1)C1CCCCC1 [Inhibitor 0448],< 500
9,CN(C(=O)OC[C@@H](C1CCCCC1)N1Cc2cc(Oc3ccccc3)ccc2N=C1N)C1CCCCC1 [Inhibitor 0458],< 50
10,COC[C@@H](NC(=O)OC[C@@H](C1CCCCC1)N1Cc2cc(Oc3ccccc3)ccc2N=C1N)C(=O)OC [Inhibitor 0469],< 500
11,Cc1nc(CN(C(=O)OC[C@@H](C2CCCCC2)N2Cc3cc(Oc4ccccc4)ccc3N=C2N)C2CCCCC2)co1 [Inhibitor 0519],< 5000
12,CN(CCC[C@@H](C1CCCCC1)N1Cc2cc(Oc3ccccc3)ccc2N=C1N)c1ccccc1 [Inhibitor 0538],< 500
13,CN(C(=O)OCC(C1CCOC1)N1Cc2cc(Oc3ccccc3)ccc2N=C1N)C1CCCCC1 (centres unmarked) [Inhibitor 0548],< 500
14,CN(CCCC(C1CCOC1)N1Cc2cc(Oc3ccccc3)ccc2N=C1N)C1CCCCC1 (centres unmarked) [Inhibitor 0568],< 500
15,CN(C)CC[C@@H](C1CCCCC1)N1Cc2cc(Oc3ccccc3)ccc2N=C1N [Inhibitor 0618],< 5000
16,CN(CC[C@@H](C1CCCCC1)N1Cc2cc(Oc3ccccc3)ccc2N=C1N)Cc1ccccc1 [Inhibitor 0628],< 500
17,CN(C(=O)OC[C@@H](C1CCCCC1)N1Cc2cc(Oc3ccccc3)ccc2N=C1N)C1CCCCC1O (some centres unmarked) [Inhibitor 0648],< 500
18,NC1=Nc2ccc(Oc3ccccc3)cc2CN1[C@@H](COC(=O)NC1CCCCC1)C1CCCCC1 [Inhibitor 0658],< 500
19,NC1=Nc2ccc(Oc3ccccc3)cc2CN1[C@@H](COC(=O)NC1CCCCC1O)C1CCCCC1 (some centres unmarked) [Inhibitor 0668],< 500
20,Cc1nc(CN(C(=O)OC[C@@H](C2CCCCC2)N2Cc3cc(Oc4ccccc4)ccc3N=C2N)C2CCCCC2)c(C)o1 [Inhibitor 908],< 500
21,COC[C@H](NC(=O)OC[C@@H](C1CCCCC1)N1Cc2cc(Oc3ccccc3)ccc2N=C1N)C(=O)OC [Inhibitor 0989],< 500
22,COCC(COC)N(C)C(=O)OC[C@@H](C1CCCCC1)N1Cc2cc(Oc3ccccc3)ccc2N=C1N [Inhibitor 1139],< 5000
23,NC1=Nc2ccc(Oc3ccccc3)cc2CN1[C@@H](CCCN(Cc1ccoc1)C1CCCCC1)C1CCCCC1 [Inhibitor 1379],< 500
